{"source": "patent US8192962B2", "about": "“Processes for detecting toxic substances” (Daikin Industries, Ltd., priority 2001, dated 2012)", "tested_on": "DNA repair protein genes", "test": "DNA chip mRNA expression in yeast, DNA repair protein genes (Table 3)", "assay_type": "cell-based, Saccharomyces cerevisiae S288C", "details": "incubated two hours, concentrations as in the 1st table", "description": "Yeast (Saccharomyces cerevisiae S288C (α SUC2mal mel gap2 CUP1)) were incubated at 25° C. on YPD medium (yeast extract 1%, polypepton 2%, glucose 2%). One of toxic chemical substances was added to the cells at logarithmic growth phase, and the cells were further incubated for two hours. Cells were cultured without any chemical substance in the same condition, and were used as control. Concentrations of the chemical substances were defined to inhibit the growth of the yeast but not lead to death.\nAfter completion of the incubation, the culture was centrifuged to collect the cells. To the cells, sodium acetate buffer (50 mM sodium acetate, 10 mM EDTA, 1% SDS) was added, and the mixture was shaken at 65° C. for five minutes, followed by returning to room temperature, and obtaining the supernatant, of which the procedures were repeated two times. To the supernatant, ½ amount of a solution of phenol/chloroform was added, and the mixture was centrifuged to give a supernatant, which was added with an equal amount of chloroform, and the mixture was centrifuged to give a supernatant. To the supernatant, an equal amount of isopropanol containing 0.3 M sodium acetate was added, and the mixture was allowed to stand at room temperature for 30 minutes, after which the mixture was centrifuged to give a sediment of the whole RNAs. Seventy % ethanol was added to the sediment, and the mixture was again centrifuged to give a sediment, which was then dried and dissolved in water. mRNA was isolated from the whole RNAs as followings. In view of the fact that a poly A chain is attached to the 3′ terminus of mRNA, a polynucleotide having a poly T structure which was immobilized on the surface of latex beads was used to trap the mRNA, and then the mRNA was washed and eluted with spine column (Oligotex-dT30<Super>mRNA Purification Kit, Takara). Reverse transcription of the mRNA was conducted with a reverse transcriptase (Super Script II Reverse Transcriptase; catalogue No. 18064-014, GibcoBRL) using fluorescence-labeled nucleotides to give cDNAs that were introduced with Cy3-dUTP or Cy5-dUTP during the reverse transcription.\nThe labeled cDNAs were dissolved in TE buffer (10mM Tris-HCl/1 mM EDTA, pH8.0), and the solution was dropped on the DNA chip containing the whole genes of yeast (DNA Chip Research Inc. Japan) so that the cDNAs were hybridized on the DNA chip at 65° C. for over 12 hours. The fluoresces intensity of the DNA chip was read with a scanner, and the ratio relative to the fluorescence intensity resulting from the absence of chemical substance was estimated as the following, which is shown in Tables 1 to 9: […]", "note": "Several values for one entry are separate records, joined by “and”; a condition that tells them apart may be missing. Equal values may be shown once."}
{"smiles": "Oc1cc(Cl)c(Cl)cc1Cl", "note": "[(6), 2,4,5-trichlorophenol]", "values": [{"measurement": "The level of expressed mRNA in the presence of chemical substance/The level of expressed mRNA in the absence of chemical substance", "setting": "yeast gene YAL015C", "value": 0.7}, {"measurement": "The level of expressed mRNA in the presence of chemical substance/The level of expressed mRNA in the absence of chemical substance", "setting": "yeast gene YBL019W", "value": 1.0}, {"measurement": "The level of expressed mRNA in the presence of chemical substance/The level of expressed mRNA in the absence of chemical substance", "setting": "yeast gene YBR073W", "value": 0.7}, {"measurement": "The level of expressed mRNA in the presence of chemical substance/The level of expressed mRNA in the absence of chemical substance", "setting": "yeast gene YCR014C", "value": 1.1}, {"measurement": "The level of expressed mRNA in the presence of chemical substance/The level of expressed mRNA in the absence of chemical substance", "setting": "yeast gene YDL017W", "value": 1.1}, {"measurement": "The level of expressed mRNA in the presence of chemical substance/The level of expressed mRNA in the absence of chemical substance", "setting": "yeast gene YDL059C", "value": 1.2}, {"measurement": "The level of expressed mRNA in the presence of chemical substance/The level of expressed mRNA in the absence of chemical substance", "setting": "yeast gene YDL200C", "value": 0.6}, {"measurement": "The level of expressed mRNA in the presence of chemical substance/The level of expressed mRNA in the absence of chemical substance", "setting": "yeast gene YDR054C", "value": 1.9}, {"measurement": "The level of expressed mRNA in the presence of chemical substance/The level of expressed mRNA in the absence of chemical substance", "setting": "yeast gene YDR369C", "value": 0.6}, {"measurement": "The level of expressed mRNA in the presence of chemical substance/The level of expressed mRNA in the absence of chemical substance", "setting": "yeast gene YEL019C", "value": 1.5}, {"measurement": "The level of expressed mRNA in the presence of chemical substance/The level of expressed mRNA in the absence of chemical substance", "setting": "yeast gene YEL037C", "value": 0.6}, {"measurement": "The level of expressed mRNA in the presence of chemical substance/The level of expressed mRNA in the absence of chemical substance", "setting": "yeast gene YER162C", "value": 0.7}, {"measurement": "The level of expressed mRNA in the presence of chemical substance/The level of expressed mRNA in the absence of chemical substance", "setting": "yeast gene YFL014W", "value": 9.3}, {"measurement": "The level of expressed mRNA in the presence of chemical substance/The level of expressed mRNA in the absence of chemical substance", "setting": "yeast gene YGL058W", "value": "1.0 and 1.5"}, {"measurement": "The level of expressed mRNA in the presence of chemical substance/The level of expressed mRNA in the absence of chemical substance", "setting": "yeast gene YGL091C", "value": 1.6}, {"measurement": "The level of expressed mRNA in the presence of chemical substance/The level of expressed mRNA in the absence of chemical substance", "setting": "yeast gene YGL127C", "value": 0.6}, {"measurement": "The level of expressed mRNA in the presence of chemical substance/The level of expressed mRNA in the absence of chemical substance", "setting": "yeast gene YGL163C", "value": 0.9}, {"measurement": "The level of expressed mRNA in the presence of chemical substance/The level of expressed mRNA in the absence of chemical substance", "setting": "yeast gene YGL249W", "value": 2.5}, {"measurement": "The level of expressed mRNA in the presence of chemical substance/The level of expressed mRNA in the absence of chemical substance", "setting": "yeast gene YGR180C", "value": "0.6 and 1.0"}, {"measurement": "The level of expressed mRNA in the presence of chemical substance/The level of expressed mRNA in the absence of chemical substance", "setting": "yeast gene YGR231C", "value": 1.9}, {"measurement": "The level of expressed mRNA in the presence of chemical substance/The level of expressed mRNA in the absence of chemical substance", "setting": "yeast gene YGR258C", "value": 2.2}, {"measurement": "The level of expressed mRNA in the presence of chemical substance/The level of expressed mRNA in the absence of chemical substance", "setting": "yeast gene YHR164C", "value": 1.4}, {"measurement": "The level of expressed mRNA in the presence of chemical substance/The level of expressed mRNA in the absence of chemical substance", "setting": "yeast gene YIL036W", "value": 1.8}, {"measurement": "The level of expressed mRNA in the presence of chemical substance/The level of expressed mRNA in the absence of chemical substance", "setting": "yeast gene YIL072W", "value": 1.2}, {"measurement": "The level of expressed mRNA in the presence of chemical substance/The level of expressed mRNA in the absence of chemical substance", "setting": "yeast gene YIL143C", "value": 1.4}, {"measurement": "The level of expressed mRNA in the presence of chemical substance/The level of expressed mRNA in the absence of chemical substance", "setting": "yeast gene YIL153W", "value": 0.9}, {"measurement": "The level of expressed mRNA in the presence of chemical substance/The level of expressed mRNA in the absence of chemical substance", "setting": "yeast gene YIR002C", "value": 2.2}, {"measurement": "The level of expressed mRNA in the presence of chemical substance/The level of expressed mRNA in the absence of chemical substance", "setting": "yeast gene YJL026W", "value": 1.0}, {"measurement": "The level of expressed mRNA in the presence of chemical substance/The level of expressed mRNA in the absence of chemical substance", "setting": "yeast gene YJR046W", "value": 2.0}, {"measurement": "The level of expressed mRNA in the presence of chemical substance/The level of expressed mRNA in the absence of chemical substance", "setting": "yeast gene YJR052W", "value": 1.4}, {"measurement": "The level of expressed mRNA in the presence of chemical substance/The level of expressed mRNA in the absence of chemical substance", "setting": "yeast gene YKL145W", "value": 2.1}, {"measurement": "The level of expressed mRNA in the presence of chemical substance/The level of expressed mRNA in the absence of chemical substance", "setting": "yeast gene YLR103C", "value": 1.1}, {"measurement": "The level of expressed mRNA in the presence of chemical substance/The level of expressed mRNA in the absence of chemical substance", "setting": "yeast gene YLR233C", "value": 0.8}, {"measurement": "The level of expressed mRNA in the presence of chemical substance/The level of expressed mRNA in the absence of chemical substance", "setting": "yeast gene YLR288C", "value": 1.2}, {"measurement": "The level of expressed mRNA in the presence of chemical substance/The level of expressed mRNA in the absence of chemical substance", "setting": "yeast gene YML032C", "value": 0.9}, {"measurement": "The level of expressed mRNA in the presence of chemical substance/The level of expressed mRNA in the absence of chemical substance", "setting": "yeast gene YMR035W", "value": 1.5}, {"measurement": "The level of expressed mRNA in the presence of chemical substance/The level of expressed mRNA in the absence of chemical substance", "setting": "yeast gene YMR072W", "value": "1.6 and 2.4"}, {"measurement": "The level of expressed mRNA in the presence of chemical substance/The level of expressed mRNA in the absence of chemical substance", "setting": "yeast gene YMR096W", "value": 2.2}, {"measurement": "The level of expressed mRNA in the presence of chemical substance/The level of expressed mRNA in the absence of chemical substance", "setting": "yeast gene YMR284W", "value": "0.8 and 1.2"}, {"measurement": "The level of expressed mRNA in the presence of chemical substance/The level of expressed mRNA in the absence of chemical substance", "setting": "yeast gene YNL213C", "value": 1.7}, {"measurement": "The level of expressed mRNA in the presence of chemical substance/The level of expressed mRNA in the absence of chemical substance", "setting": "yeast gene YNL250W", "value": 0.8}, {"measurement": "The level of expressed mRNA in the presence of chemical substance/The level of expressed mRNA in the absence of chemical substance", "setting": "yeast gene YNL261W", "value": 1.3}, {"measurement": "The level of expressed mRNA in the presence of chemical substance/The level of expressed mRNA in the absence of chemical substance", "setting": "yeast gene YNL312W", "value": 1.7}, {"measurement": "The level of expressed mRNA in the presence of chemical substance/The level of expressed mRNA in the absence of chemical substance", "setting": "yeast gene YOL043C", "value": 0.8}, {"measurement": "The level of expressed mRNA in the presence of chemical substance/The level of expressed mRNA in the absence of chemical substance", "setting": "yeast gene YOR005C", "value": 1.3}, {"measurement": "The level of expressed mRNA in the presence of chemical substance/The level of expressed mRNA in the absence of chemical substance", "setting": "yeast gene YOR386W", "value": 3.3}, {"measurement": "The level of expressed mRNA in the presence of chemical substance/The level of expressed mRNA in the absence of chemical substance", "setting": "yeast gene YPL022W", "value": 5.2}, {"measurement": "The level of expressed mRNA in the presence of chemical substance/The level of expressed mRNA in the absence of chemical substance", "setting": "yeast gene YPL164C", "value": 1.7}, {"measurement": "The level of expressed mRNA in the presence of chemical substance/The level of expressed mRNA in the absence of chemical substance", "setting": "yeast gene YPL194W", "value": 1.1}, {"measurement": "The level of expressed mRNA in the presence of chemical substance/The level of expressed mRNA in the absence of chemical substance", "setting": "yeast gene YPR025C", "value": 0.9}]}
